Legend:
MDA-MB-231 = assay: Propidium iodide (PI) assay, 48 h; type: cell-based, human; settings: MDA-MB-231, 48 h
Protocol: (§4) The first step was to evaluate if the compounds display cytotoxicity against the adherent cells. Propidium iodide (PI) assay was performed for the drug resistant solid tumor cellular models (triple negative breast cancer models: SUM149 and MDA-MB-231) for 48 h (Figure 5) [30, 31].

SUM149 = assay: Propidium iodide (PI) assay, 48 h; settings: SUM149, 48 h
Protocol: as §4

PBMC = assay: CTG viability assay (CellTiter-Glo, 72 h); type: cell-based; settings: Homo sapiens, non-cancerous cells
Protocol: (§1) All human cell lines were incubated at 37 °C in a 5% CO2 atmosphere and maintained under sterile conditions. Cells were tested for Mycoplasma (Lonza, Alpharetta, GA, USA) using the manufacturer’s conditions prior to experiments. Cell lines were purchased from American Type Culture Collection (ATCC, Manassas, VA, USA) or Leibniz-Institute Deutsche Sammlung von Mikroorganismen und Zellkulturen GmbH (DSMZ, Braunschweig, Germany) and cultured without antibiotics unless stated. Leukemia cells were cultured in RPMI and supplemented with 10% fetal bovine serum (FBS, Hyclone, Logan, UT, USA). SUP-B15, and KOPN-8 lines were cultured in RPMI supplemented with 10% FBS (Hyclone), 1% GlutaMAX™, 1% Pen/Step, and 0.1% β-mercaptoethanol. BJ cells were cultured in EMEM media supplemented with 10% FBS (Hyclone). Breast cancer cells (MDA-MB-231 & SUM149) were cultured in DMEM and Ham’s F12 respectively, supplemented with 10% FBS, 1% GlutaMAX™, 1% Pen/Step, and 2 µM cortisol/1 µg/mL insulin for SUM149. Both cells were grown to 80% confluence densities as recommended by ATCC. PBMCs were supplemented with concanavalin-A (5 μg/mL) and IL-2 (50 U/ml). To test general cytotoxicity, the following cell numbers were used for 384 well plates: KOPN-8 (ACC 552, infant human B cell precursor acute lymphoblastic leukemia with MLL-MLLt1/ENL fusion, 1000 cells/well), SUP-B15 (ACC389, human B cell precursor acute lymphoblastic leukemia of pediatric second relapse carrying the ALL-variant (m-bcr) of BCR-ABL1 fusion gene (e1-a2), 1600 cells/well), NALM-06 (DSMZ ACC128, non-T/non-B ALL at relapse with P15INK4B and P16INK4A deletions, 1200 cells/well), UoC-B1 (pediatric BCP-ALL at second relapse with TCF3/E2A-HFL fusion, 1000 cells/well), BJ (CRL-2522, normal human foreskin fibroblast cells, 400 cells/well) and PBMCs (periphery blood monocyte cells from healthy donors, IBC#BDC046, 10,000 cells/well).
(§2) Cytotoxicity evaluation was performed using the CellTiter-Glo Luminescent Cell Viability Assay kit (G7570, Promega, Madison, WI, USA), according to the manufacturer’s instructions. Briefly, the cell concentrations used were experimentally determined to ensure logarithmic growth during the 72-h duration of the experiment, and avoid adverse effects on cell growth by DMSO exposure. 1 × 10^3–4.8 × 10^3 or 4 × 10^2–1.2 × 10^3 cells/well were seeded in 96 or 384-well white flat-bottomed plates (3610 or 8804BC, Corning, Corning, NY, USA) in 100 µL or 30 µL/well, respectively. The plates were incubated at 37 °C in 5% CO2 for 24 h before drugging. Test compounds (10 mM in DMSO) in nine 3-fold serial dilutions were dispensed via pintool (Biomek liquid handler, Beckman, Indianapolis, USA) to assay plates. The final concentration of DMSO was 0.3% (v/v) in each well. The positive controls included staurosporine (10 μM), and gambogic acid (10 μM). The plates were incubated for 72 h at 37 °C in 5% CO2, then quenched with CellTiter-Glo® (Promega, Madison, WI, USA, 50 µL/96 or 30 µL/384), centrifuged at 1000 rpm for 1 min and incubated at RT for 20 min. Luminescence was recorded with a plate reader (Envision, Perkin Elmer, Waltham, MA, USA). The mean luminescence of each experimental treatment group was normalized as a percentage of the mean intensity of untreated controls. EC50 values were calculated by Pipeline Pilot software (Accelrys, Enterprise Platform, San Diego, CA, USA).

NALM-06 = assay: CTG viability assay (CellTiter-Glo, 72 h); type: cell-based; settings: Homo sapiens, mean ± SEM of triplicates
Protocol: as §1, §2

KOPN-8 [1] = assay: CTG viability assay (CellTiter-Glo, 72 h); type: cell-based; settings: Homo sapiens, mean ± SEM of triplicates
Protocol: as §1, §2

UoC-B1 = assay: CTG viability assay (CellTiter-Glo, 72 h); type: cell-based; settings: Homo sapiens, mean ± SEM of triplicates
Protocol: as §1, §2

[2] = tested on: de novo protein synthesis in MDA-MB-231; assay: EZClick in-cell-click de novo protein synthesis assay; type: cell-based, human; settings: MDA-MB-231, 2 h exposure time
Description: Protein synthesis is essential in cell growth, proliferation, signaling, differentiation, and death. […] The assay includes a robust chemical method based on an alkyne containing o-propargyl-puromycin probe, which stops translation by forming covalent conjugates with nascent polypeptide chains. Truncated polypeptides are rapidly turned over by the proteasome and can be detected based on the subsequent click reaction with a fluorescent azide. To test whether these compounds (4–14) induced de novo protein synthesis inhibition, compounds were tested for a 2 h exposure time, under the same conditions as the known protein synthesis inhibitor cycloheximide (CHX) in MDA-MB-231 cell model following an in-cell-click de novo protein synthesis assay.
Biovision’s EZClick™ protein synthesis monitoring assay kit (EZClick™ Global Protein Synthesis Assay Kit, Catalog # K715-100, Milpitas, CA, USA) was used according to manufacturer’s protocol. The assay was conducted in 8-well chambered coverslips (ibidi GmbH µ-slide # 80826, Martinsried, Germany). Cells were plated at 2 × 10^4 per well and incubated at 37 °C for 12 h. Then, the cells were treated with compounds for 1.5 h and processed and stained according to protocol (representative images shown in Figure 4). Protein synthesis activity is shown in red, DNA staining is shown in green. Cycloheximide (CHX) was used as a positive control and DMSO as the negative control. Images shown were taken with a Marianas CSU-X spinning disk confocal imaging system (3i, Denver, CO, USA) configured with a Zeiss Axio Observer microscope (Carl Zeiss Inc., Thornwood, NY, USA) with diode lasers, at 63× magnification and resolution of 512 × 512 pixels (3i). For each field of view, an image stack consisting of 20 optical sections were taken at 63× magnification. The total intensity of red and green staining was quantified for the entire image stack. Six fields of view were analyzed per condition. Images shown represent a single optical section for each field of view. For each stack, the red intensity (protein synthesis) was adjusted to the green intensity (DNA content) in each image. The numbers from six images were used to calculate the average and standard deviation for each condition. Numbers were normalized to the negative control value arbitrarily set to one. The Slide viewer 6 software package was used for rendering and analysis of the images.

BJ = assay: CTG viability assay (CellTiter-Glo, 72 h); type: cell-based, human; settings: Homo sapiens, BJ; CellTiter-Glo, 72 h; non-cancerous cells
Protocol: as §1, §2

SUP-B15 [3] = assay: CTG viability assay (CellTiter-Glo, 72 h); type: cell-based, human; settings: Homo sapiens
Protocol: as §1, §2

KOPN-8 [4] = assay: Cell cycle analysis (PI DNA content, flow cytometry); type: cell-based, human; settings: KOPN-8, 24 h; silvestrol 5 µM, 8 5 µM, 9 10 µM, 10 5 µM, 12 10 µM, 13 10 µM
Protocol: (§3) The samples were probed with AnnexinV-FITC (Roche/Boehringer Mannheim, Indianapolis, IN, USA) according to the manufacturer’s instructions. KOPN-8 or SUB-P15 cells were plated (1.00 × 10^6 cells/plate) and incubated for 12 h and incubated at 37 °C. Then, cells were treated with compounds or controls for 24 h. Cells were stained with AnnexinV-FITC, PI and the staining profiles were determined with FACScan and Cell-Quest software. For cellular DNA content, the same cell treatment as above was performed. Then, cells were fixed in cold 75% ethanol, treated with RNase and then stained with PI solution (50 µg/mL). Cell cycle distribution was analyzed with the FACSCalibur analyzer (BD Biosciences, Franklin Lakes, NJ, USA) and Cell-Quest software. The percentage of DNA content at different phases of the cell cycle was analyzed with ModFit-software (version 5.0, Verity Software House, Topsham, ME, USA).

KOPN-8 [5] = assay: Annexin V/PI apoptosis flow cytometry assay; type: cell-based, human; settings: KOPN-8, 24 h; for late apoptotic state or cell death: 10 µM; for live cells (Annexin-, PI-): 8 5 µM, 9 10 µM, 10 5 µM, 12 10 µM, 13 10 µM
Protocol: as §3

SUP-B15 [6] = assay: Annexin V/PI apoptosis flow cytometry assay; type: cell-based, human; settings: SUP-B15, 24 h; for late apoptotic state or cell death: 10 µM; for live cells (Annexin-, PI-): 8 5 µM, 9 10 µM, 10 5 µM, 12 10 µM, 13 10 µM
Protocol: as §3

SUP-B15 [7] = assay: Cell cycle analysis (PI DNA content, flow cytometry); type: cell-based, human; settings: SUP-B15, 24 h; for cell cycle effect: silvestrol 5 µM, 8 5 µM, 9 10 µM, 10 5 µM, 12 10 µM, 13 10 µM
Protocol: as §3

[8] = tested on: human cancer cell lines such as oral carcinoma, melanoma, acute myelogenous leukemia, and cervical cancer; design: method as in PMID 15132542, PMID 22128783, PMID 24086701, PMID 19190247; settings: several human cancer cell lines; cited from earlier work
[9] = SUP-B15, 72 h, mean ± SEM of triplicates
[10] = SUP-B15, mean ± SEM of triplicates

Structure (SMILES) | activity in PI assay (MDA-MB-231) | activity in PI assay (SUM149) | EC50 (PBMC) [µM] | EC50 (NALM-06) [µM] | EC50 (KOPN-8 [1]) [µM] | EC50 (UoC-B1) [µM] | de novo protein synthesis inhibition [2] | EC50 (BJ) [µM] | EC50 (SUP-B15 [3]; [9]) [µM] | EC50 (SUP-B15 [3]; [10]) [µM] | cell cycle effect (KOPN-8 [4]) | late apoptotic state or cell death (KOPN-8 [5]) | late apoptotic state or cell death (SUP-B15 [6]) | cell cycle effect (SUP-B15 [7]) | IC50 values [8] | increase in the percentage of cells in S phase (SUP-B15 [7]; 5 µM) | reduction in the percentage of cells in G2/M phase (SUP-B15 [7]; 5 µM) | live cells (Annexin-, PI-) (KOPN-8 [5]) | live cells (Annexin-, PI-) (SUP-B15 [6]) | reduction in the percentage of cells in the S phase (SUP-B15 [7]; 10 µM)
C/C=C1\C(=O)C[C@@]2(O)[C@@H]3CCC4=CC(=O)CC[C@]4(C)[C@H]3CC[C@]12C [Compound 14] | weakest activity | weakest activity | > 43.3 | > 43.3 | > 43.3 | > 21.6 | no protein synthesis inhibition | > 43.3 | 17.2 ± 4.5 |  |  |  |  |  |  |  |  |  |  | 
COc1cc2c(cc1O)[C@H]1Cc3ccc(OC)c(O)c3CN1CC2 [Compound 5] |  |  | > 43.3 | 8.38 ± 1.8 | 32 ± 7.6 | 17.3 ± 3.8 |  | > 43.3 |  | 29 ± 3.7 |  |  |  |  |  |  |  |  |  | 
CC(C)(O)CC[C@@H](O)[C@](C)(O)[C@H]1CC[C@@]2(O)C3=CC(=O)[C@@H]4C[C@@H](O)[C@@H](O)C[C@]4(C)[C@H]3CC[C@]12C [Compound 11] |  |  | > 43.3 | > 43.3 | > 43.3 | > 21.6 | no protein synthesis inhibition | > 43.3 | 29 ± 6 |  |  |  |  |  |  |  |  |  |  | 
CC(C)CC[C@@H](O)[C@](C)(O)[C@H]1CC[C@@]2(O)C3=CC(=O)[C@]4(O)C[C@@H](O)[C@@H](O)C[C@]4(C)[C@H]3[C@H](O)C[C@]12C [Compound 13, muristerone A] |  |  | > 43.3 | 0.518 ± 0.15 | > 43.3 | > 21.6 | little to no protein synthesis inhibition | > 43.3 | 9.5 ± 2.1 |  | minimal effect on the cell cycle | did not capture significant increase of late apoptotic state or cell death | did not capture significant increase of late apoptotic state or cell death |  |  |  |  |  |  | 
COc1ccc(CC2c3cc(O)c(OC)cc3CCN2C)cc1O (centres unmarked) [Compound 4] |  |  | > 86.8 | 18.3 ± 2.5 | 32.1 ± 3.5 | > 23.4 | Partial protein synthesis inhibition | > 46.8 |  | 38 ± 6.1 |  |  |  |  |  |  |  |  |  | 
COC(=O)[C@H]1[C@@H](O)[C@@]2(O)c3c(OC)cc(O[C@@H]4O[C@@H]([C@H](O)CO)CO[C@H]4OC)cc3O[C@@]2(c2ccc(OC)cc2)[C@@H]1c1ccccc1 [Silvestrol, reference compound] |  |  |  |  |  |  |  |  |  |  | cell arrest in the G1/G0 phase |  |  | cell arrest in the G1/G0 phase | low micromolar range |  |  |  |  | 
COc1ccc2c(c[n+](C)c3c4cc5c(cc4ccc23)OCO5)c1OC [Compound 8, chelerythrine] |  |  | 7.89 | 1.9 ± 0.2 | 0.821 ± 0.22 | 1.96 ± 0.28 | no inhibition | 29.8 | 2.77 ± 0.36 |  | significant cell arrest in G1/G0 |  |  |  |  | ~ 20% | ~ 10% | not viable | not viable | 
C[C@H]([C@H](O)CCC(C)(C)O)[C@H]1CC[C@@]2(O)C3=CC(=O)[C@@H]4C[C@@H](O)[C@@H](O)C[C@]4(C)[C@H]3CC[C@]12C [Compound 12, ecdysone] |  |  | > 43.3 | > 43.3 | > 43.3 | > 21.6 | little to no protein synthesis inhibition | > 43.3 |  | 20.1 ± 3.2 | minimal effect on the cell cycle | did not capture significant increase of late apoptotic state or cell death | did not capture significant increase of late apoptotic state or cell death | arrested G2/M |  |  |  | small decrease in live cells | small decrease in live cells | ~ 10%
CCC1CN2CCc3cc(OC)c(OC)cc3C2CC1CC1NCCc2cc(O)c(OC)cc21 (centres unmarked) [Compound 6] |  |  | > 43.3 | 18.4 ± 3.1 | 0.16 ± 0.05 | > 21.6 |  | > 43.3 |  | 9.83 ± 0.5 |  |  |  |  |  |  |  |  |  | 

Source: PMC6571673, “Cytostatic and Cytotoxic Natural Products against Cancer Cell Models” (Molecules, 2019)
